Format in all cases: in vivo
Test [1] has as its system barnyardgrass (Echinochloa crus-galli). In words: Test A preemergence. Particulars: Echinochloa crus-galli, pre-emergence, 240 h. The gist of the method:
(§1)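 Preemergence soil spray on seeded pots or post-emergence spray on 1–2 leaf plants, in loam–sand blend. Greenhouse ~10 d. Visual rating 0–100 against untreated plants.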

For test [2], the system named is ryegrass, Italian (Italian ryegrass, Lolium multiflorum). Briefly: Test A preemergence. Particulars: Lolium multiflorum, pre-emergence, 240 h. The gist of the method:
as §1

The subject of test [3] is giant foxtail (Setaria faberii). In words: Test A preemergence. Particulars: Setaria faberi, pre-emergence, 240 h. The gist of the method: as §1
The subject of test [4] is ragweed (common ragweed, Ambrosia elatior). In words: Test A preemergence. The following applies: Ambrosia artemisiifolia, pre-emergence, 240 h. The gist of the method: as §1
The test system of test [5] is pigweed (Amaranthus retroflexus). In words: Test A preemergence. The following applies: Amaranthus retroflexus, pre-emergence, 240 h.
Test [6] has as its system Kochia (Kochia scoparia). In words: Test A preemergence. Particulars: Bassia scoparia, pre-emergence, 240 h. The gist of the method:
as §1

Test [7] concerns barnyardgrass (Echinochloa crus-galli). Briefly: Test A postemergence. Particulars: Echinochloa crus-galli, post-emergence, 240 h, 125 g ai/ha, Postemergence; visual injury after approximately 10 d; 0 to 100 scale where 0 is no effect and 100 is complete control; read-out: Plant response rating, Barnyardgrass. The gist of the method: as §1
Test [8] relates to ryegrass, Italian (Italian ryegrass, Lolium multiflorum). In words: Test A postemergence. The following applies: Lolium multiflorum, post-emergence, 240 h, 125 g ai/ha, Postemergence; visual injury after approximately 10 d; 0 to 100 scale where 0 is no effect and 100 is complete control; read-out: Plant response rating, Ryegrass, Italian. The gist of the method: as §1
Test [9] relates to Galium (catchweed bedstraw, Galium aparine). Briefly: Test A postemergence. Particulars: Galium, post-emergence, 240 h, 125 g ai/ha, Postemergence; visual injury after approximately 10 d; 0 to 100 scale where 0 is no effect and 100 is complete control; read-out: Plant response rating, Galium. The gist of the method:
as §1

Test [10] concerns wheat (Triticum aestivum). In words: Test A postemergence. The following applies: Triticum aestivum, post-emergence, 240 h, 125 g ai/ha, Postemergence; visual injury after approximately 10 d; 0 to 100 scale where 0 is no effect and 100 is complete control; read-out: Plant response rating, Wheat. The gist of the method:
as §1

Test [11] relates to giant foxtail (Setaria faberii). In words: Test A postemergence. The following applies: Setaria faberi, post-emergence, 240 h, 125 g ai/ha, Postemergence; visual injury after approximately 10 d; 0 to 100 scale where 0 is no effect and 100 is complete control; read-out: Plant response rating, Foxtail, Giant. The gist of the method: as §1
The subject of test [12] is ragweed (common ragweed, Ambrosia elatior). Briefly: Test A postemergence. Particulars: Ambrosia artemisiifolia, post-emergence, 240 h, 125 g ai/ha, Postemergence; visual injury after approximately 10 d; 0 to 100 scale where 0 is no effect and 100 is complete control; read-out: Plant response rating, Ragweed. The gist of the method: as §1
The subject of test [13] is pigweed (Amaranthus retroflexus). Briefly: Test A postemergence. The following applies: Amaranthus retroflexus, post-emergence, 240 h, 125 g ai/ha, Postemergence; visual injury after approximately 10 d; 0 to 100 scale where 0 is no effect and 100 is complete control; read-out: Plant response rating, Pigweed. The gist of the method: as §1
Test [14] relates to blackgrass (Alopecurus myosuroides). In words: Test A postemergence. Particulars: Alopecurus myosuroides, post-emergence, 240 h, 125 g ai/ha, Postemergence; visual injury after approximately 10 d; 0 to 100 scale where 0 is no effect and 100 is complete control; read-out: Plant response rating, Blackgrass. The gist of the method: as §1
For test [15], the system named is Kochia (Kochia scoparia). Briefly: Test A postemergence. The following applies: Bassia scoparia, post-emergence, 240 h, 125 g ai/ha, Postemergence; visual injury after approximately 10 d; 0 to 100 scale where 0 is no effect and 100 is complete control; read-out: Plant response rating, Kochia. The gist of the method: as §1
For a further test, the system named is corn (Zea mays). Briefly: Test A postemergence. The following applies: Zea mays, post-emergence, 240 h, 125 g ai/ha, Postemergence; visual injury after approximately 10 d; 0 to 100 scale where 0 is no effect and 100 is complete control. The gist of the method:
as §1

Each structure is given as a SMILES string.

With `CN1CC[C@H](c2cccc(Cl)c2)[C@@H](C(=O)Nc2ccccc2F)C1=O` [Compound 922], the pest or weed control at 125 g/ha in [1] (125 g ai/ha, preemergence, 0 to 100 scale where 0 is no effect and 100 is complete control, read-out: Barnyardgrass plant response rating) amounted to 60%; in test [2] (125 g ai/ha, preemergence, 0 to 100 scale where 0 is no effect and 100 is complete control, read-out: Ryegrass, Italian plant response rating), 20%; in [3] (125 g ai/ha, preemergence, 0 to 100 scale where 0 is no effect and 100 is complete control, read-out: Foxtail, Giant plant response rating), 90%; in test [4] (125 g ai/ha, preemergence, 0 to 100 scale where 0 is no effect and 100 is complete control, read-out: Ragweed plant response rating), 0%; in test [5] (125 g ai/ha, preemergence, 0 to 100 scale where 0 is no effect and 100 is complete control, read-out: Pigweed plant response rating), 0%; in the test with Kochia (Kochia scoparia) [6] (125 g ai/ha, preemergence, 0 to 100 scale where 0 is no effect and 100 is complete control, read-out: Kochia plant response rating), 0%. Also, the pest or weed control at 125 g/ha in test [7] worked out at 90%; in test [8], 0%; in test [9], 0%; in test [11], 50%; in [12], 0%; in [13], 0%. In addition, the pest or weed control at 125 g/ha (in test [14]; with Kochia (Kochia scoparia) [15]) was 0% each time. Moreover, the pest or weed control at 500 g/ha in [1] (500 g ai/ha, Preemergence, visual injury vs untreated controls after approximately 10 d, read-out: Barnyardgrass plant response rating (0 to 100 scale where 0 is no effect and 100 is complete control)) was 80%; in test [2] (500 g ai/ha, Preemergence, visual injury vs untreated controls after approximately 10 d, read-out: Ryegrass, Italian plant response rating (0 to 100 scale where 0 is no effect and 100 is complete control)), 40%; in test [3] (500 g ai/ha, Preemergence, visual injury vs untreated controls after approximately 10 d, read-out: Foxtail, Giant plant response rating (0 to 100 scale where 0 is no effect and 100 is complete control)), 90%; in test [4] (500 g ai/ha, Preemergence, visual injury vs untreated controls after approximately 10 d, read-out: Ragweed plant response rating (0 to 100 scale where 0 is no effect and 100 is complete control)), 0%; in [5] (500 g ai/ha, Preemergence, visual injury vs untreated controls after approximately 10 d, read-out: Pigweed plant response rating (0 to 100 scale where 0 is no effect and 100 is complete control)), 0%; with Kochia (Kochia scoparia) [6] (500 g ai/ha, Preemergence, visual injury vs untreated controls after approximately 10 d, read-out: Kochia plant response rating (0 to 100 scale where 0 is no effect and 100 is complete control)) it was 0%. The plant injury at 125 g/ha in test [10] is 0%. Further, the Corn plant response rating (crop injury, 0 = no effect, 100 = complete kill) at 125 g/ha in the test with corn (Zea mays) was found to be 0%.

The record behind these values is patent publication US12077503B2, “Substituted cyclic amides and their use as herbicides” (FMC CORPORATION, priority 2015, dated 2024).
